# Measurements published in ChEMBL document CHEMBL4613209, “Quinolone hybrids and their anti-cancer activities: An overview” (Eur J Med Chem, 2019).
# Experiments:
# Assay type in all cases: functional, cell-based
# Hep 3B2 = experiment: Antiproliferative activity against human Hep3B cells after 24 to 72 hrs by MTT assay
# SMMC-7721 = experiment: Antiproliferative activity against human SMMC7721 cells after 24 to 72 hrs by MTT assay
# L1210 [1] = experiment: Antiproliferative activity against mouse L1210 cells after 24 to 72 hrs by MTT assay
# HL-60 [2] = experiment: Antiproliferative activity against human HL60 cells after 24 to 72 hrs by MTT assay
# L1210 [3] = experiment: Cytotoxicity against mouse L1210 cells assessed as reduction in cell viability
# HL-60 [4] = experiment: Cytotoxicity against human HL60 cells assessed as reduction in cell viability
# CHO = experiment: Cytotoxicity against CHO cells assessed as reduction in cell viability; details: Cricetulus griseus
Compound,IC50 (SMMC-7721) [nM],IC50 (L1210 [1]) [nM],IC50 (HL-60 [2]) [nM],IC50 (Hep 3B2) [nM],IC50 (L1210 [3]) [nM],IC50 (HL-60 [4]) [nM],IC50 (CHO) [nM]
CCN1CCN(c2cc3c(cc2F)c(=O)c(-c2nnc4sc(-c5cn(C6CC6)c6cc(N7CCN(C)CC7)c(F)cc6c5=O)nn24)cn3C2CC2)CC1,,,,,120 to 5200,120 to 5200,120 to 5200
CCN1CCN(c2cc3c(cc2F)c(=O)c(-c2nn4c(-c5cn(C6CC6)c6cc(N7CCN(CC)CC7)c(F)cc6c5=O)nnc4s2)cn3C2CC2)CC1,,,,,120 to 5200,120 to 5200,120 to 5200
O=C(N/N=C/c1ccc(F)cc1)c1cn(C2CC2)c2cc(N/N=C/c3ccc(F)cc3)c(F)cc2c1=O,,,,,1500 to 23500,1500 to 23500,1500 to 23500
Cc1ccc(/C=N/NC(=O)c2cn(C3CC3)c3cc(N/N=C/c4ccc(C)cc4)c(F)cc3c2=O)cc1,,,,,1500 to 23500,1500 to 23500,1500 to 23500
CCN1CCN(c2cc3c(cc2F)c(=O)c(-c2nn4c(-c5cn(C6CC6)c6cc(N7CCN(C)CC7)c(F)cc6c5=O)nnc4s2)nn3C2CC2)CC1,,,,,120 to 5200,120 to 5200,120 to 5200
O=C(N/N=C/c1ccc([N+](=O)[O-])cc1)c1cn(C2CC2)c2cc(N/N=C/c3ccc([N+](=O)[O-])cc3)c(F)cc2c1=O,,,,,1500 to 23500,1500 to 23500,1500 to 23500
CC1COc2c(N3CCN(C)CC3)c(F)cc3c(=O)c(-c4nnc(-c5cn(C6CC6)c6cc(N7CCN(C)CC7)c(F)cc6c5=O)o4)cn1c23 (configuration not stated),,,,,260 to 14500,260 to 14500,260 to 14500
CCN1CCN(c2cc3c(cc2F)c(=O)c(-c2nnc4sc(-c5cn(CC)c6cc(N7CCNCC7)c(F)cc6c5=O)nn24)cn3C2CC2)CC1,,,,,120 to 5200,120 to 5200,120 to 5200
CN1CCN(c2cc3c(cc2F)c(=O)c(-c2nn4c(-c5cn(C6CC6)c6cc(N7CCNCC7)c(F)cc6c5=O)nnc4s2)cn3C2CC2)CC1,,,,,120 to 5200,120 to 5200,120 to 5200
O=C(N/N=C/c1ccccc1)c1cn(C2CC2)c2cc(N/N=C/c3ccccc3)c(F)cc2c1=O,,,,,1500 to 23500,1500 to 23500,1500 to 23500
CCn1cc(-c2nnc(SCC(=O)N/N=C/c3ccc(Cl)cc3)o2)c(=O)c2cc(F)c(N3CCN(C)CC3)cc21,1400 to 52300,1400 to 52300,1400 to 52300,1400 to 52300,,,
CCn1cc(-c2nnc(SCC(=O)N/N=C/c3cc(OC)c(OC)c(OC)c3)o2)c(=O)c2cc(F)c(N3CCN(C)CC3)cc21,1400 to 52300,1400 to 52300,1400 to 52300,1400 to 52300,,,
CCn1cc(C(=O)N/N=C/c2ccc(O)c(OC)c2)c(=O)c2cc(F)c(N3CCNCC3)cc21,1400 to 52300,1400 to 52300,1400 to 52300,1400 to 52300,,,
CCn1cc(C(=O)N/N=C/c2ccc3c(c2)OCO3)c(=O)c2cc(F)c(N3CCNCC3)cc21,1400 to 52300,1400 to 52300,1400 to 52300,1400 to 52300,,,
CCn1cc(-c2nnc(SCC(=O)N/N=C/c3ccc(O)c(OC)c3)o2)c(=O)c2cc(F)c(N3CCN(C)CC3)cc21,1400 to 52300,1400 to 52300,1400 to 52300,1400 to 52300,,,
COc1ccc(/C=N/Nc2nnc(-c3cn4c5c(c(N6CCN(C)CC6)c(F)cc5c3=O)OCC4C)[nH]2)cc1 (configuration not stated),1400 to 52300,1400 to 52300,1400 to 52300,1400 to 52300,,,
CCn1cc(-c2nnc(SCC(=O)N/N=C/c3ccc(C(=O)O)cc3)o2)c(=O)c2cc(F)c(N3CCN(C)CC3)cc21,1400 to 52300,1400 to 52300,1400 to 52300,1400 to 52300,,,
CCn1cc(C(=O)N/N=C/c2ccc(Cl)cc2)c(=O)c2cc(F)c(N3CCNCC3)cc21,1400 to 52300,1400 to 52300,1400 to 52300,1400 to 52300,,,
CCn1cc(C(=O)N/N=C/c2ccccc2OC)c(=O)c2cc(F)c(N3CCNCC3)cc21,1400 to 52300,1400 to 52300,1400 to 52300,1400 to 52300,,,
CC1COc2c(N3CCN(C)CC3)c(F)cc3c(=O)c(-c4nnc(N/N=C/c5ccc(F)cc5)[nH]4)cn1c23 (configuration not stated),1400 to 52300,1400 to 52300,1400 to 52300,1400 to 52300,,,
CC1COc2c(N3CCN(C)CC3)c(F)cc3c(=O)c(-c4nnc(N/N=C/c5ccc(Cl)cc5)[nH]4)cn1c23 (configuration not stated),1400 to 52300,1400 to 52300,1400 to 52300,1400 to 52300,,,
CCn1cc(C(=O)N/N=C/c2ccc(F)cc2)c(=O)c2cc(F)c(N3CCNCC3)cc21,1400 to 52300,1400 to 52300,1400 to 52300,1400 to 52300,,,
CCn1cc(-c2nnc(SCC(=O)N/N=C/c3ccc(C#N)cc3)o2)c(=O)c2cc(F)c(N3CCN(C)CC3)cc21,1400 to 52300,1400 to 52300,1400 to 52300,1400 to 52300,,,
CC1COc2c(N3CCN(C)CC3)c(F)cc3c(=O)c(-c4nnc(SCC(=O)N/N=C/c5ccc([N+](=O)[O-])c6c5OCO6)[nH]4)cn1c23 (configuration not stated),1400 to 52300,1400 to 52300,1400 to 52300,1400 to 52300,,,
CCn1cc(-c2nnc(SCC(=O)N/N=C/c3ccc4c(c3)OCO4)o2)c(=O)c2cc(F)c(N3CCN(C)CC3)cc21,1400 to 52300,1400 to 52300,1400 to 52300,1400 to 52300,,,
CC1COc2c(N3CCN(C)CC3)c(F)cc3c(=O)c(-c4nnc(SCC(=O)N/N=C/c5ccccc5)[nH]4)cn1c23 (configuration not stated),1400 to 52300,1400 to 52300,1400 to 52300,1400 to 52300,,,

# Now from value to compound, other results behind:
IC50 (SMMC-7721) [nM],IC50 (L1210 [1]) [nM],IC50 (HL-60 [2]) [nM],Compound,IC50 (Hep 3B2) [nM],IC50 (L1210 [3]) [nM],IC50 (HL-60 [4]) [nM],IC50 (CHO) [nM]
1400 to 52300,1400 to 52300,1400 to 52300,CCn1cc(-c2nnc(SCC(=O)N/N=C/c3ccccc3OC)o2)c(=O)c2cc(F)c(N3CCN(C)CC3)cc21,1400 to 52300,,,
1400 to 52300,1400 to 52300,1400 to 52300,CC1COc2c(N3CCN(C)CC3)c(F)cc3c(=O)c(-c4nnc(SCC(=O)N/N=C/c5ccc(F)cc5)[nH]4)cn1c23 (configuration not stated),1400 to 52300,,,
1400 to 52300,1400 to 52300,1400 to 52300,CC1COc2c(N3CCN(C)CC3)c(F)cc3c(=O)c(-c4nnc(SCC(=O)N/N=C/c5ccc(C(=O)O)cc5)[nH]4)cn1c23 (configuration not stated),1400 to 52300,,,
1400 to 52300,1400 to 52300,1400 to 52300,CCn1cc(-c2nnc(SCC(=O)N/N=C/c3ccccc3)o2)c(=O)c2cc(F)c(N3CCN(C)CC3)cc21,1400 to 52300,,,
1400 to 52300,1400 to 52300,1400 to 52300,CCn1cc(-c2nnc(SCC(=O)N/N=C/c3cccc([N+](=O)[O-])c3)o2)c(=O)c2cc(F)c(N3CCN(C)CC3)cc21,1400 to 52300,,,
1400 to 52300,1400 to 52300,1400 to 52300,CCn1cc(-c2nnc(SCC(=O)N/N=C/c3ccc(C)cc3)o2)c(=O)c2cc(F)c(N3CCN(C)CC3)cc21,1400 to 52300,,,
1400 to 52300,1400 to 52300,1400 to 52300,COc1cc(/C=N/Nc2nnc(-c3cn4c5c(c(N6CCN(C)CC6)c(F)cc5c3=O)OCC4C)[nH]2)cc(OC)c1OC (configuration not stated),1400 to 52300,,,
1400 to 52300,1400 to 52300,1400 to 52300,CC1COc2c(N3CCN(C)CC3)c(F)cc3c(=O)c(-c4nnc(SCC(=O)N/N=C/c5ccc(Cl)cc5)[nH]4)cn1c23 (configuration not stated),1400 to 52300,,,
1400 to 52300,1400 to 52300,1400 to 52300,CCn1cc(-c2nnc(SCC(=O)N/N=C/c3ccc(F)cc3)o2)c(=O)c2cc(F)c(N3CCN(C)CC3)cc21,1400 to 52300,,,
1400 to 52300,1400 to 52300,1400 to 52300,CCn1cc(C(=O)N/N=C/c2cc(OC)c(OC)c(OC)c2)c(=O)c2cc(F)c(N3CCNCC3)cc21,1400 to 52300,,,
1400 to 52300,1400 to 52300,1400 to 52300,CCn1cc(C(=O)N/N=C/c2ccc(OC)cc2)c(=O)c2cc(F)c(N3CCNCC3)cc21,1400 to 52300,,,
1400 to 52300,1400 to 52300,1400 to 52300,CC1COc2c(N3CCN(C)CC3)c(F)cc3c(=O)c(-c4nnc(N/N=C/c5ccccc5)[nH]4)cn1c23 (configuration not stated),1400 to 52300,,,
1400 to 52300,1400 to 52300,1400 to 52300,CCn1cc(C(=O)N/N=C/c2ccccc2O)c(=O)c2cc(F)c(N3CCNCC3)cc21,1400 to 52300,,,
1400 to 52300,1400 to 52300,1400 to 52300,CCn1cc(C(=O)N/N=C/c2ccccc2)c(=O)c2cc(F)c(N3CCNCC3)cc21,1400 to 52300,,,
1400 to 52300,1400 to 52300,1400 to 52300,COc1ccc(/C=N/NC(=O)CSc2nnc(-c3cn4c5c(c(N6CCN(C)CC6)c(F)cc5c3=O)OCC4C)[nH]2)cc1 (configuration not stated),1400 to 52300,,,
1400 to 52300,1400 to 52300,1400 to 52300,CCn1cc(-c2nnc(SCC(=O)N/N=C/c3ccc([N+](=O)[O-])cc3)o2)c(=O)c2cc(F)c(N3CCN(C)CC3)cc21,1400 to 52300,,,
1400 to 52300,1400 to 52300,1400 to 52300,CCn1cc(C(=O)N/N=C/c2ccc([N+](=O)[O-])cc2)c(=O)c2cc(F)c(N3CCNCC3)cc21,1400 to 52300,,,
1400 to 52300,1400 to 52300,1400 to 52300,CC1COc2c(N3CCN(C)CC3)c(F)cc3c(=O)c(-c4nnc(N/N=C/c5ccc([N+](=O)[O-])c6c5OCO6)[nH]4)cn1c23 (configuration not stated),1400 to 52300,,,
1400 to 52300,1400 to 52300,1400 to 52300,CCn1cc(-c2nnc(SCC(=O)N/N=C/c3ccccc3C(=O)O)o2)c(=O)c2cc(F)c(N3CCN(C)CC3)cc21,1400 to 52300,,,
1400,1600,4200,CC1COc2c(N3CCN(C)CC3)c(F)cc3c(=O)c(-c4nnc(N/N=C/c5ccc(C(=O)O)cc5)[nH]4)cn1c23 (configuration not stated),1400 to 52300,,,
1400 to 52300,1400 to 52300,1400 to 52300,CCn1cc(-c2nnc(SCC(=O)N/N=C/c3ccccc3O)o2)c(=O)c2cc(F)c(N3CCN(C)CC3)cc21,1400 to 52300,,,
1400 to 52300,1400 to 52300,1400 to 52300,CCn1cc(-c2nnc(SCC(=O)N/N=C/c3ccc(OC)cc3)o2)c(=O)c2cc(F)c(N3CCN(C)CC3)cc21,1400 to 52300,,,
